Measured values reported in patent US12448383B2, “Compounds and methods for treatment of viral infections” (priority 2022, dated 2025).
pEC50: −log10 of the molar value.

Experiments:
[1] = tested on: Respiratory syncytial virus recombinant with luciferase (RSV-Luc5) in HEp-2 cells; test: microbe, parasite or virus in culture; assay type: cell-based; conditions: human respiratory syncytial virus, HEp-2, 72 h, read-out: RSV Hep2 EC50
[2] = tested on: Respiratory syncytial virus recombinant with luciferase (RSV-Luc5) in Normal Human Bronchial Epithelial (NHBE) cells; test: microbe, parasite or virus in culture; assay type: cell-based; conditions: 72 h, read-out: RSV NHBE EC50
[3] = CC50 MT4 cytotoxicity (Cell-Titer Glo); assay type: cell-based; conditions: human
Description: Cytotoxicity of the compounds was determined in uninfected cells using the cell viability reagent in a similar fashion as described before for other cell types (Cihlar et al., Antimicrob Agents Chemother. 2008, 52(2):655-65). HEp-2 (1.5×10^3 cells/well) and MT-4 (2×10^3 cells/well) cells were plated in 384-well plates and incubated with the appropriate medium containing 3-fold serially diluted compound ranging from 15 nM to 100,000 nM. Cells were cultured for 4-5 days at 37° C. Following the incubation, the cells were allowed to equilibrate to 25° C., and cell viability was determined by adding Cell-Titer Glo viability reagent. The mixture was incubated for 10 min, and the luminescence signal was quantified using an Envision plate reader. Untreated cell and cells treated at 2 μM puromycin (Sigma, St. Louis, MO) serve as 100% and 0% cell viability control, respectively. The percent of cell viability was calculated for each tested compound concentration relative to the 0% and 100% controls and the CCso value was determined by non-linear regression as a compound concentration reducing the cell viability by 50%.

[4] = tested on: Caco-2 cells (clone C2BBe1); test: CACO-2 permeability; assay type: in vitro ADME; set-up: unit not given here; conditions: for DM Caco2 A to B: apical to basolateral, donor pH 6.5, receiver pH 7.4; for DM Caco2 B to A: basolateral to apical
Description: Pre-plated Caco-2 cells (clone C2BBel) were obtained from Sigma-Aldrich, Inc. (Atlanta, GA). Cell monolayers were grown to confluence on collagen-coated, microporous, polycarbonate membranes in 24-well transwell plates for 21 days. The permeability assay buffer in donor wells was Hanks' balanced salt solution (HBSS) containing 10 mM HEPES and 15 mM glucose at a pH of 6.5 containing 200 μM BNPP. The receiver wells used HBSS buffer containing 10 mM HEPES and 15 mM glucose at a pH of 7.4 and supplemented with 1°% BSA. After an initial equilibration with transport buffer, TEER values were read to test membrane integrity. The experiment was started by the addition of buffers containing test compounds, 200 μl and 1000 μl in the apical and basolateral chamber, respectively. At 0- and 2-hour post dose, 10 μL was sampled from donor compartment and was immediately diluted in 190 μL of 20% methanol. At 1 and 2 hours post dose, 100 μl of solution was taken from the receiver compartments and was immediately diluted in 100 μl of 20% methanol. Removed buffer was replaced with fresh buffer and a correction was applied to all calculations for the removed material. Each compound was tested in 2 separate replicate wells for each condition. All samples were then extracted with 400 μl 100% acetonitrile with internal standard to precipitate protein. Cells were dosed on the apical or basolateral side to determine forward (A to B) and reverse (B to A) permeability. To test for non-specific binding and compound instability, the total amount of drug was quantitated at the end of the experiment and compared to the material present in the original dosing solution as a percent recovery. […] Samples were analyzed by LC-MS/MS.

[5] = GI S9 stability - no PMSF; assay type: in vitro ADME; conditions: pH 7.4; human intestinal S9, PMSF-free; read-out: GIS9-HUMAN-NoPMSF T1/2
Description: Duplicate aliquots of test compound or positive control substrate (GS-7340) were added to S9 stock diluted with 100 mM phosphate buffered saline, pH 7.4, to obtain a protein concentration of 1.0 mg/mL. The S9 metabolic reactions were initiated by the addition of the substrates to the S9 reaction mixture to a final concentration of 2 μM. At 0, 10, 20, 30, 60 and 120 min, […] aliquots of the reaction mixture were transferred to plates containing […] of IS/Q solution. After quenching, the plates were centrifuged at 3000 g for 30 minutes, and 150 μL aliquots of each supernatant were diluted with 150 μL water. Aliquots ([…]) of the diluted supernatant were analyzed on a Thermo Q-Exactive mass spectrometer as described below. GI S9 Stability—No phenylmethylsulfonyl fluoride (PMSF): Similar to the procedure described above, test compounds were incubated at 2 μM with 1 mg/mL PMSF-free Intestinal S9 fractions. Samples are removed at 6 time points over the course of a 120 min experiment and the parent compound disappreance and reference compound A formation is determined by mass spectrometry.
Example K: Liquid Chromatography/Mass Spectroscopy Methods for S9 and Plasma Stability
Quantification of test compounds, Reference Compound A (S9 stability assay nucleoside metabolite), and controls was performed by analyte/internal standard peak area ratio (PAR) values measured on a Thermo Q-Exactive mass spectrometer coupled to a Dionex UltiMate 3000 HPLC with a Leap Technologies HTC PAL autosampler. The column used for analysis of test compounds and Reference Compound A was a Waters Acquity BEH C18 ([…] particle size, 2.1′50 mm). The column used for control (GS-7340) was a Thermo Hypersil GOLD ([…] particle size, 2.1′50 mm). Mobile phase A consisted of 0.1% (v/v) formic acid in water. Mobile phase B consisted of 0.1% (v/v) formic acid in acetonitrile. Elution of analytes was achieved by a series of linear gradients of acetonitrile in water containing 0.1°(v/v) formic acid. The mass spectrometer was calibrated on a weekly basis and mass tolerance of 5 ppm was used.

[6] = Plasma stability; assay type: in vitro ADME; set-up: unit not given here; conditions: 37° C., 2 μM substrate
Description: At 0.05, 0.5, 1, 2, 3 and 4 hr, […] aliquots of the reaction mixture were transferred to plates containing […] of IS/Q quenching solution. After quenching, the plates were centrifuged at 3000 g for 30 minutes, and 150 μL supernatant was diluted with 150 μL water. Aliquots ([…]) of the diluted supernatant were analyzed on a Thermo Q-Exactive mass spectrometer as described below.
Mobile phase A consisted of 0.1% (v/v) formic acid in water. Mobile phase B consisted of 0.1% (v/v) formic acid in acetonitrile. Elution of analytes was achieved by a series of linear gradients of acetonitrile in water containing 0.1°(v/v) formic acid. The mass spectrometer was calibrated on a weekly basis and mass tolerance of 5 ppm was used.

[7] = tested on: SARS Coronavirus 2 recombinant with NanoLuc (SARS-CoV2-NLuc) in A549-hACE2 cells; test: organism not typed; assay type: cell-based; conditions: 48 h; read-out: SARS-CoV2 EC50

## CC(C)OC(=O)OC[C@H]1O[C@@](C#N)(c2ccc3c(N)ncnn23)[C@@H]2OC(c3ccccc3)O[C@@H]21 (stereo partly drawn) [Compound 100, [(3aR,4R,6R,6aR)-4-(4-aminopyrrolo[2,1-f][1,2,4]triazin-7-yl)-4-cyano-2-phenyl-6,6a-dihydro-3aH-furo[3,4-d][1,3]dioxol-6-yl]methyl isopropyl carbonate]
[1]
  pEC50: < 4.30
[2]
  pEC50: 4.80
[3]
  CC50: > 50 µM
[4]
  DM Caco2 A to B: 11.73
  DM Caco2 B to A: 22.71

## N#C[C@@]1(c2ccc3c(N)ncnn23)O[C@H](COC(=O)OC2CCC2)[C@@H](O)[C@H]1O [Compound 37, ((2R,3S,4R,5R)-5-(4-aminopyrrolo[2,1-f][1,2,4]triazin-7-yl)-5-cyano-3,4-dihydroxytetrahydrofuran-2-yl)methyl cyclobutyl carbonate]
[5]
  half-life at 2 µM: 35.3 s
[2]
  pEC50: 5.32
[6]
  STA Human Plasma 37: 53
[3]
  CC50: > 50 µM
[4]
  DM Caco2 A to B: 0.5
  DM Caco2 B to A: 7.54
[7]
  pEC50: 5.50

## CC(C)[C@@H]1CC[C@@H](C)C[C@H]1OC(=O)OC[C@H]1O[C@@](C#N)(c2ccc3c(N)ncnn23)[C@H](O)[C@@H]1O [Compound 83, ((2R,3S,4R,5R)-5-(4-aminopyrrolo[2,1-f][1,2,4]triazin-7-yl)-5-cyano-3,4-dihydroxytetrahydrofuran-2-yl)methyl ((1R,2S,5R)-2-isopropyl-5-methylcyclohexyl) carbonate]
[5]
  half-life at 2 µM: 726 s
[2]
  pEC50: 5.63
[6]
  STA Human Plasma 37: 1584
[3]
  CC50: 21 µM
[4]
  DM Caco2 A to B: 5.3
  DM Caco2 B to A: 25.42
[7]
  pEC50: 4.61

## N#C[C@@]1(c2ccc3c(N)ncnn23)O[C@H](COC(=O)OC2CNC2)[C@@H](O)[C@H]1O [Compound 20, ((2R,3S,4R,5R)-5-(4-aminopyrrolo[2,1-f][1,2,4]triazin-7-yl)-5-cyano-3,4-dihydroxytetrahydrofuran-2-yl)methyl azetidin-3-yl carbonate]
[1]
  pEC50: 5.69
[2]
  pEC50: 5.36
[3]
  CC50: > 50 µM
[7]
  pEC50: 5.05

## COC(=O)O[C@H]1[C@@H](OC(=O)OC)[C@](C#N)(c2ccc3c(N)ncnn23)O[C@@H]1COC(=O)OC(C)C [Compound 135, (2R,3R,4R,5R)-2-(4-aminopyrrolo[2,1-f][1,2,4]triazin-7-yl)-2-cyano-5-(((isopropoxycarbonyl)oxy)methyl)tetrahydrofuran-3,4-diyl dimethyl bis(carbonate)]
[5]
  half-life at 2 µM: 39.2 s
[2]
  pEC50: < 4.30
[6]
  STA Human Plasma 37: 96.462
[3]
  CC50: > 50 µM
[4]
  DM Caco2 A to B: 3.87
  DM Caco2 B to A: 18.05
[7]
  pEC50: < 4.30

## CC(C)C(C)(C)OC(=O)OC[C@H]1O[C@@](C#N)(c2ccc3c(N)ncnn23)[C@H](O)[C@@H]1O [Compound 68, ((2R,3S,4R,5R)-5-(4-aminopyrrolo[2,1-f][1,2,4]triazin-7-yl)-5-cyano-3,4-dihydroxytetrahydrofuran-2-yl)methyl (2,3-dimethylbutan-2-yl) carbonate]
[5]
  half-life at 2 µM: 2760 s
[2]
  pEC50: 5.89
[6]
  STA Human Plasma 37: 266.43
[3]
  CC50: > 50 µM
[4]
  DM Caco2 A to B: 0.98
  DM Caco2 B to A: 7.09
[7]
  pEC50: 5.50

## CC(C)OC(=O)OC[C@H]1O[C@@](C#N)(c2ccc3c(NC(=O)OC(C)(C)C)ncnn23)[C@H](OC(=O)OC(C)C)[C@@H]1OC(=O)OC(C)C [Compound 80, tert-butyl (7-((2R,3R,4R,5R)-2-cyano-3,4-bis((isopropoxycarbonyl)oxy)-5-(((isopropoxycarbonyl)oxy)methyl)tetrahydrofuran-2-yl)pyrrolo[2,1-f][1,2,4]triazin-4-yl)carbamate]
[5]
  half-life at 2 µM: 50.8 s
[2]
  pEC50: 5.69
[6]
  STA Human Plasma 37: 604.23
[3]
  CC50: > 50 µM
[4]
  DM Caco2 A to B: 1.35
  DM Caco2 B to A: 0.95
[7]
  pEC50: < 4.30

## CC1(OC(=O)OC[C@H]2O[C@@](C#N)(c3ccc4c(N)ncnn34)[C@H](O)[C@@H]2O)CCCCCC1 [Compound 55, ((2R,3S,4R,5R)-5-(4-aminopyrrolo[2,1-f][1,2,4]triazin-7-yl)-5-cyano-3,4-dihydroxytetrahydrofuran-2-yl)methyl (1-methylcycloheptyl) carbonate]
[5]
  half-life at 2 µM: 35.8 s
[2]
  pEC50: 5.87
[6]
  STA Human Plasma 37: 75.665
[3]
  CC50: > 50 µM
[4]
  DM Caco2 A to B: 0.38
  DM Caco2 B to A: 1.89
[7]
  pEC50: 5.54

## CC1=CCC(OC(=O)OC[C@H]2O[C@@](C#N)(c3ccc4c(N)ncnn34)[C@H](O)[C@@H]2O)(C(C)C)CC1 (stereo partly drawn) [Compound 74, ((2R,3S,4R,5R)-5-(4-aminopyrrolo[2,1-f][1,2,4]triazin-7-yl)-5-cyano-3,4-dihydroxytetrahydrofuran-2-yl)methyl (1-isopropyl-4-methylcyclohex-3-en-1-yl) carbonate]
[5]
  half-life at 2 µM: 1820 s
[2]
  pEC50: 6.02
[6]
  STA Human Plasma 37: 205.11
[3]
  CC50: > 50 µM
[4]
  DM Caco2 A to B: 3.25
  DM Caco2 B to A: 9.88
[7]
  pEC50: 5.62

## CCOC(=O)OC[C@H]1O[C@@](C#N)(c2ccc3c(N)ncnn23)[C@@H]2OC(CC)O[C@@H]21 (stereo partly drawn) [Compound 132, ((3aR,4R,6R,6aR)-6-(4-aminopyrrolo[2,1-f][1,2,4]triazin-7-yl)-6-cyano-2-ethyltetrahydrofuro[3,4-d][1,3]dioxol-4-yl)methyl ethyl carbonate]
[5]
  half-life at 2 µM: 37.4 s
[2]
  pEC50: < 4.30
[6]
  STA Human Plasma 37: 12.304
[3]
  CC50: > 50 µM
[4]
  DM Caco2 A to B: 12.34
  DM Caco2 B to A: 13.86
[7]
  pEC50: < 4.30
